In patent publication US4190647A, “Polypeptides and methods” (Sloan-Kettering Institute for Cancer Research, priority 1979, dated 1980):
Where a SMILES comes first, the peptide text is derived from it.

Assays:
[1] = activity of terminally substituted pentapeptides in Twomey solution compared with the basic pentapeptide of Example I; format: cell-based
chicken bone marrow = assay: induction of Th-1 (T-cell) antigen on chicken bone marrow, cytotoxicity assay; format: cell-based; conditions: peptide at 1 μg/mil (method text: 0.1 μg/ml); control incubations subtracted
Procedure: To determine the pharmacological activity and characteristics of these pentapeptides, use was made of the induction of Th-1 (T-cell) antigen on chicken bone marrow for use as an assay of the peptides at a concentration of 1 μg/mil. This method is described in Science, Brand et al, Vol. 193, pp. 319-321, July, 1976. In this method, pooled cells from femur and tibiotarsus of newly hatched chicks of strain SC (Hy-Line) are fractionated by ultracentrifugation on a five-layer discontinuous bovine serum albumin (BSA) gradient (11). Cells from each interface are washed and suspended for incubation at a concentration of 5×10^6 cells per milliliter with the peptide (0.1 μg/ml) in RPMI 1630 medium supplemented with 15 mM Hepes, 5 percent y-globulin-free fetal calf serum, deoxyribonuclease (14 to 18 unit/ml), heparin (5 unit/ml), penicillin (100 unit/ml), and streptomycin (100 μg/ml). Controls are incubated with BSA (1 μg/ml) or medium alone. After incubation, the cells are tested in the cytotoxicity assay using chicken and guinea pig complement fractions. The proportion of Bu-1^+ or Th-1^+ cells in each layer are calculated as a cytotoxicity index, 100 (a-b)/a, where a and b are the percentages of viable cells in the complement control and test preparation, respectively. The percentage of cells induced is obtained by subtracting the mean values in the control incubations without inducing agents (usually 1 to 3 percent) from those of the test inductions.

[2] = tested on: precursors present in bone marrow or spleen; conditions: precursors from bone marrow or spleen; cited from earlier work

| Compound | % Induction of Th-1 (T-cell) antigen on chicken bone marrow (chicken bone marrow) | also measured |
| --- | --- | --- |
| CC[C@H](C)[C@H](NC(=O)[C@H](CC(N)=O)NC(=O)[C@H](Cc1ccc(O)cc1)NC(C)=O)C(=O)N[C@@H](CCC(N)=O)C(=O)N[C@@H](CCCCN)C(=O)O [Example III, CH3 CONH-TYR-ASN-ILE-GLN-LYS-COOH] (Ac-YNIQK-OH) |  | activity relative to the basic pentapeptide of Example I ([1]; 1 μg/ml in 14% Twomey solution): maximum and minimum activities comparable to the basic pentapeptide of Example I |
| CC[C@H](C)[C@H](NC(=O)[C@H](CC(N)=O)NC(=O)[C@@H](N)Cc1ccc(O)cc1)C(=O)N[C@@H](CCC(N)=O)C(=O)N[C@@H](CCCCN)C(N)=O [Example IV, H2 N-TYR-ASN-ILE-GLN-LYS-CONH2] (H-YNIQK-NH2) |  | activity relative to the basic pentapeptide of Example I ([1]; 1 μg/ml in 6% Twomey solution): activity comparable to the basic pentapeptide of Example I |
| CC[C@H](C)[C@H](NC(=O)[C@H](CC(N)=O)NC(=O)[C@H](C)N)C(=O)N[C@@H](CCC(N)=O)C(=O)N[C@@H](CCCCN)C(=O)O [Example XXII, H2 N-ALA-ASN-ILE-GLN-LYS-COOH] (H-ANIQK-OH) | 12% |  |
| CC[C@H](C)[C@H](NC(=O)[C@H](C)NC(=O)[C@@H](N)Cc1ccc(O)cc1)C(=O)N[C@@H](CCC(N)=O)C(=O)N[C@@H](CCCCN)C(=O)O [Example XXIII, H2 N-TYR-ALA-ILE-GLN-LYS-COOH] (H-YAIQK-OH) | 15% |  |
| C[C@H](NC(=O)[C@H](CC(N)=O)NC(=O)[C@@H](N)Cc1ccc(O)cc1)C(=O)N[C@@H](CCC(N)=O)C(=O)N[C@@H](CCCCN)C(=O)O [Example XXIV, H2 N-TYR-ASN-ALA-GLN-LYS-COOH] (H-YNAQK-OH) | 21% |  |
| Ubiquitin |  | concentration inducing in vitro differentiation of both T-cell and B-cell immunocytes [2]: nanogram concentrations |
